Assay results reported in US6737383B1, “Herbicidal oxadiazolidines” (priority 1999, dated 2004).

Experiments:
velvetleaf = test: Test B pre/postemergence velvetleaf; format: in vivo, Abutilon theophrasti
Procedure, shortened: (§1)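 Response is a visual 0-to-10 score relative to untreated plants, where 0 means no effect and 10 means complete control, taken twelve to sixteen days after application. Treatments went onto soil at planting and onto foliage of 1- to 4-leaf plants, using a surfactant-containing non-phytotoxic solvent.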

rape = test: Test B pre/postemergence rape; format: in vivo, Brassica napus
Procedure, shortened: as §1

purple nutsedge = test: Test B pre/postemergence purple nutsedge; format: in vivo, Cyperus rotundus
Procedure, shortened: as §1

morningglory = test: Test B pre/postemergence morningglory; format: in vivo, Ipomoea hederacea
Procedure, shortened: as §1

cocklebur = test: Test B pre/postemergence cocklebur; format: in vivo, Xanthium strumarium
Procedure, shortened: as §1

corn = test: Test B pre/postemergence corn; format: in vivo, Zea mays
Procedure, shortened: as §1

wild oat = test: Test B pre/postemergence wild oat; format: in vivo, Avena fatua
Procedure, shortened: as §1

giant foxtail = test: Test B pre/postemergence giant foxtail; format: in vivo, Setaria faberii
Procedure, shortened: as §1

smallflower flatsedge = test: Test B flood test smallflower flatsedge; format: in vivo, Cyperus difformis
Procedure, shortened: (§2)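 Each value is a visual injury score relative to controls, with 10 meaning complete control and 0 no effect. Evaluation took place twelve to sixteen days after the 2-leaf-stage plants were treated and kept in the greenhouse.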

duck salad = test: Test B flood test duck salad; format: in vivo, Heteranthera limosa
Procedure, shortened: as §2

blackgrass = test: Test B pre/postemergence blackgrass; format: in vivo, Alopecurus myosuroides
Procedure, shortened: as §1

surinam grass = test: Test B pre/postemergence surinam grass; format: in vivo, Brachiaria decumbens
Procedure, shortened: as §1

crabgrass = test: Test B pre/postemergence crabgrass; format: in vivo, Digitaria sanguinalis
Procedure, shortened: as §1

wheat = test: Test B pre/postemergence wheat; format: in vivo, Triticum aestivum
Procedure, shortened: as §1

sugar beet = test: Test B pre/postemergence sugar beet; format: in vivo, Beta vulgaris
Procedure, shortened: as §1

soybean = test: Test B pre/postemergence soybean; format: in vivo, Glycine max
Procedure, shortened: as §1

[1] = Preemergence, Rate 62 g/ha, scale of 0 to 10 where 0 is no effect and 10 is complete control
[2] = Preemergence, Rate 250 g/ha, scale of 0 to 10 where 0 is no effect and 10 is complete control
[3] = Preemergence, Rate 500 g/ha, scale of 0 to 10 where 0 is no effect and 10 is complete control
[4] = Rate 62 g/ha, Postemergence, scale 0 to 10, 0 no effect, 10 complete control
[5] = Rate 125 g/ha, Postemergence, scale of 0 to 10 where 0 is no effect and 10 is complete control
[6] = Rate 125 g/ha, Preemergence, scale of 0 to 10 where 0 is no effect and 10 is complete control
[7] = Rate 250 g/ha, Postemergence, scale of 0 to 10 where 0 is no effect and 10 is complete control
[8] = Rate 500 g/ha, Postemergence, scale 0 to 10, 0 no effect, 10 complete control
[9] = Rate 62 g/ha, headed Pre-emergence (flood test species), scale 0 to 10 (0 no effect, 10 complete control)
[10] = Rate 125 g/ha, Pre-emergence, flood test species, scale 0 to 10 where 0 is no effect and 10 is complete control
[11] = Rate 250 g/ha, Pre-emergence, flood-test species, scale 0 to 10, 0 is no effect, 10 is complete control
[12] = Rate 500 g/ha, Pre-emergence, flood test species, scale 0 to 10 (0 no effect, 10 complete control)

CCC=CCn1c(=O)on(C(=O)N(c2ccc(F)cc2)C(C)C)c1=O [Compound 286] was tested, and the “Velvetleaf plant response rating” value (velvetleaf; [1]) was 0, the “Velvetleaf plant response rating” value (velvetleaf; [2]) was 3 and the “Plant response rating, Velvetleaf” value (velvetleaf; [3]) was 5. The “Velvetleaf plant response rating” value (velvetleaf; [4]) was 0, the “Velvetleaf plant response rating” value (velvetleaf; [5]) was 0 and the “Velvetleaf plant response rating” value (velvetleaf; [6]) was 0. For the same molecule, the “Plant response rating, Velvetleaf” value (velvetleaf; [7]) was 0, the “Rape plant response rating” value (rape; [1]) was 0 and the “Rape plant response rating” value (rape; [2]) was 3. For the same molecule, the “Plant response rating, Rape” value (rape; [3]) was 7, the “Rape plant response rating” value (rape; [4]) was 0 and the “Rape plant response rating” value (rape; [5]) was 2. The “Rape plant response rating” value (rape; [6]) was 0, the “Plant response rating, Rape” value (rape; [7]) was 5 and the “Nutsedge plant response rating” value (purple nutsedge; [1]) was 0. The “Nutsedge plant response rating” value (purple nutsedge; [2]) was 0, the “Nutsedge plant response rating” value (purple nutsedge; [4]) was 0 and the “Nutsedge plant response rating” value (purple nutsedge; [5]) was 0. The “Nutsedge plant response rating” value (purple nutsedge; [6]) was 0, the “Plant response rating, Nutsedge” value (purple nutsedge; [7]) was 0 and the “Morningglory plant response rating” value (morningglory; [1]) was 0. For the same molecule, the “Morningglory plant response rating” value (morningglory; [2]) was 0, the “Plant response rating, Morningglory” value (morningglory; [3]) was 0 and the “Morningglory plant response rating” value (morningglory; [4]) was 1. For the same molecule, the “Morningglory plant response rating” value (morningglory; [5]) was 3, the “Morningglory plant response rating” value (morningglory; [6]) was 0 and the “Plant response rating, Morningglory” value (morningglory; [7]) was 8. For the same molecule, the “Cocklebur plant response rating” value (cocklebur; [1]) was 0, the “Cocklebur plant response rating” value (cocklebur; [2]) was 0 and the “Plant response rating, Cocklebur” value (cocklebur; [3]) was 0. For the same molecule, the “Cocklebur plant response rating” value (cocklebur; [4]) was 0, the “Cocklebur plant response rating” value (cocklebur; [5]) was 0 and the “Cocklebur plant response rating” value (cocklebur; [6]) was 0. The “Plant response rating, Cocklebur” value (cocklebur; [7]) was 0, the “Cocklebur plant response rating” value (cocklebur; [8]) was 0 and the “Corn plant response rating” value (corn; [1]) was 0. The “Corn plant response rating” value (corn; [2]) was 0, the “Plant response rating, Corn” value (corn; [3]) was 0 and the “Corn plant response rating” value (corn; [4]) was 0. For the same molecule, the “Corn plant response rating” value (corn; [5]) was 0, the “Corn plant response rating” value (corn; [6]) was 0 and the “Plant response rating, Corn” value (corn; [7]) was 0. The “Corn plant response rating” value (corn; [8]) was 0, the “Wild oats plant response rating” value (wild oat; [1]) was 0 and the “Wild oats plant response rating” value (wild oat; [2]) was 4. For the same molecule, the “Plant response rating, Wild oats” value (wild oat; [3]) was 6, the “Wild oats plant response rating” value (wild oat; [4]) was 0 and the “Wild oats plant response rating” value (wild oat; [5]) was 0. The “Plant response rating, Wild oats” value (wild oat; [7]) was 2, the “Giant foxtail plant response rating” value (giant foxtail; [1]) was 8 and the “Giant foxtail plant response rating” value (giant foxtail; [2]) was 10. The “Plant response rating, Giant foxtail” value (giant foxtail; [3]) was 10, the “Giant foxtail plant response rating” value (giant foxtail; [4]) was 0 and the “Giant foxtail plant response rating” value (giant foxtail; [5]) was 0. For the same molecule, the “Giant foxtail plant response rating” value (giant foxtail; [6]) was 10, the “Plant response rating, Giant foxtail” value (giant foxtail; [7]) was 2 and the “S. Flatsedge plant response rating” value (smallflower flatsedge; [9]) was 0. The “S. Flatsedge plant response rating” value (smallflower flatsedge; [10]) was 0, the “S. Flatsedge plant response rating” value (smallflower flatsedge; [11]) was 0 and the “S. Flatsedge plant response rating” value (smallflower flatsedge; [12]) was 0. For the same molecule, the “Ducksalad plant response rating” value (duck salad; [9]) was 0, the “Ducksalad plant response rating” value (duck salad; [10]) was 0 and the “Ducksalad plant response rating” value (duck salad; [11]) was 0. For the same molecule, the “Ducksalad plant response rating” value (duck salad; [12]) was 0, the “Blackgrass plant response rating” value (blackgrass; [1]) was 0 and the “Blackgrass plant response rating” value (blackgrass; [2]) was 7. The “Plant response rating, Blackgrass” value (blackgrass; [3]) was 7, the “Blackgrass plant response rating” value (blackgrass; [4]) was 0 and the “Blackgrass plant response rating” value (blackgrass; [5]) was 2. For the same molecule, the “Blackgrass plant response rating” value (blackgrass; [6]) was 0, the “Plant response rating, Blackgrass” value (blackgrass; [7]) was 5 and the “Blackgrass plant response rating” value (blackgrass; [8]) was 8. The “B. signalgrass plant response rating” value (surinam grass; [1]) was 0, the “B. signalgrass plant response rating” value (surinam grass; [2]) was 8 and the “Plant response rating, B. signalgrass” value (surinam grass; [3]) was 8. The “B. signalgrass plant response rating” value (surinam grass; [4]) was 0, the “B. signalgrass plant response rating” value (surinam grass; [5]) was 0 and the “B. signalgrass plant response rating” value (surinam grass; [6]) was 3. For the same molecule, the “Plant response rating, B. signalgrass” value (surinam grass; [7]) was 0, the “B. signalgrass plant response rating” value (surinam grass; [8]) was 2 and the “Crabgrass plant response rating” value (crabgrass; [1]) was 0. For the same molecule, the “Crabgrass plant response rating” value (crabgrass; [2]) was 10, the “Plant response rating, Crabgrass” value (crabgrass; [3]) was 10 and the “Crabgrass plant response rating” value (crabgrass; [4]) was 0. For the same molecule, the “Crabgrass plant response rating” value (crabgrass; [5]) was 0, the “Crabgrass plant response rating” value (crabgrass; [6]) was 2 and the “Plant response rating, Crabgrass” value (crabgrass; [7]) was 2. The “Wheat plant response rating” value (wheat; [1]) was 0, the “Wheat plant response rating” value (wheat; [2]) was 0 and the “Plant response rating, Wheat” value (wheat; [3]) was 2. The “Wheat plant response rating” value (wheat; [4]) was 0, the “Wheat plant response rating” value (wheat; [5]) was 3 and the “Wheat plant response rating” value (wheat; [6]) was 0. For the same molecule, the “Plant response rating, Wheat” value (wheat; [7]) was 3, the “Sugarbeets plant response rating” value (sugar beet; [1]) was 0 and the “Sugarbeets plant response rating” value (sugar beet; [2]) was 0. For the same molecule, the “Plant response rating, Sugarbeets” value (sugar beet; [3]) was 4, the “Sugarbeets plant response rating” value (sugar beet; [4]) was 0 and the “Sugarbeets plant response rating” value (sugar beet; [5]) was 2. The “Sugarbeets plant response rating” value (sugar beet; [6]) was 0, the “Plant response rating, Sugarbeets” value (sugar beet; [7]) was 2 and the “Soybean plant response rating” value (soybean; [1]) was 0. For the same molecule, the “Soybean plant response rating” value (soybean; [2]) was 0, the “Plant response rating, Soybean” value (soybean; [3]) was 0 and the “Soybean plant response rating” value (soybean; [4]) was 1. For the same molecule, the “Soybean plant response rating” value (soybean; [5]) was 1, the “Soybean plant response rating” value (soybean; [6]) was 0 and the “Plant response rating, Soybean” value (soybean; [7]) was 2.
